According to US7462615B2, “Inhibitors of cysteine proteases, the pharmaceutical compositions thereof and their therapeutic applications” (Hybrigenics SA, priority 2005, dated 2008):

target: T1, MBP-SENP1 (Homo sapiens, UniProt Q9P0U3); assay: SENP1 Activity Assay; assay type: biochemical; details: 200 nM SUMO-AMC; 1.8 nM enzyme; pre-incubated 30 minutes at 25° C., 60 minutes at 37° C.; sigmoidal fit; read-out: SENP1 (Inhibition of cysteine protease activities)
T1 construct: made in house; host or cells: E. coli BL21
T1 sequence (Q9P0U3 1-644): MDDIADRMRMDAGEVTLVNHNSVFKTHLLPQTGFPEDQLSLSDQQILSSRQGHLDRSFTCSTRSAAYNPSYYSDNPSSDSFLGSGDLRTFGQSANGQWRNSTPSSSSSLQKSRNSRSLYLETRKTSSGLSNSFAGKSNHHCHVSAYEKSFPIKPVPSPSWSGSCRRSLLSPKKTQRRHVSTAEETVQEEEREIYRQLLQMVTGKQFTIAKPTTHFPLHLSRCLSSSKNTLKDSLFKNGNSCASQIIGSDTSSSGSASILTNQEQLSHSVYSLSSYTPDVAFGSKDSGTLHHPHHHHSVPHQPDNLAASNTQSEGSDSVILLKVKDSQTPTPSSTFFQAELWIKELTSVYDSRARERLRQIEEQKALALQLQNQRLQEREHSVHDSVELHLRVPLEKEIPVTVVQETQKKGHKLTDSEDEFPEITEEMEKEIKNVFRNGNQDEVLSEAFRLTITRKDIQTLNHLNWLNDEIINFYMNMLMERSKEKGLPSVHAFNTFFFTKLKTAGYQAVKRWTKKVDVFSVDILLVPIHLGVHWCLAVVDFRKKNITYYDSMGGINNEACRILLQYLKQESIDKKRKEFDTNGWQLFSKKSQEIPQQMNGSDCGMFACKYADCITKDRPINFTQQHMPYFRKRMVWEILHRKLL
Protocol: The cDNA encoding SENP1 was obtained by PCR amplification from placenta mRNA. SENP1 cDNA was subcloned by PCR into a bacterial expression vector (pMAL-C2X; New England BioLabs, Inc). The sequence was ascertained by sequencing of the entire open reading frame. pMAL-C2-SENP1 was transformed into BL21 cells and grown in LB-ampicillin medium supplemented with glucose (2 g.l^−1). Fusion protein expression was induced by IPTG (0.5 mM). Bacterial cell lysates were harvested and lyzed in lysis buffer (Tris HCl 20 mM pH7.4; 1 mM EDTA; 200 mM NaCl; 0.5% Triton X-100; 10% glycerol; Protease Inhibitor Cocktail) followed by sonication. Proteins were affinity purified on amylose affinity resin (New England BioLabs, Inc). Bound materials were extensively washed in wash buffer (20 mM Tris HCl pH7.4; 200 mM NaCl; 1 mM EDTA; 0.5% Triton X-100; 10% glycerol) and eluted from the resin in 10 mM maltose-containing wash buffer. Proteins were dialyzed in dialysis buffer (Tris HCl pH 7.6 20 mM; NaCl 200 mM; DTT 1 mM; EDTA 1 mM; 10% Glycerol). Proteins purifications were analyzed on 4-12% NuPAGE (Invitrogen).
MBP-SENP1 was diluted in SENP1 buffer (50 mM Tris HCl; 0.5 mM EDTA; 5 mM DTT; 0.01% Triton X-100; Bovine Serum Albumin 0.05 mg.ml^−1 pH7.6). Compounds stocks (100 mM) were stored at −20° C. in DMSO. Compounds were tested at the following final concentrations: 100 μM; 33.3 μM; 11.1 μM; 3.7 μM; 1.23 μM; 412 nM; 137 nM; 45.7 nM; 15.2 nM; 5 nM.
Reactions were performed as duplicates in Black LJL 96 well plates (HE microplates; Molecular Devices; 20 μl final reaction volume). The substrate concentration for SENP1 was 200 nM SUMO-AMC (Chem. Biol., 2003, 10, p. 837-846) (Boston Biochem). The concentration of the enzyme (SENP1) in specificity assays was 1.8 nM. The concentrations were determined in order to perform specificity assays under initial velocities at fixed substrate concentration. Compounds were pre-incubated with enzymes for 30 minutes at 25° C. Reactions were initiated by addition of substrate to the plates containing the enzymes (+/− compounds) diluted in assay buffer. Reactions were incubated for 60 minutes at 37° C. Reactions were stopped by adding acetic acid (100 mM final). Readings were performed on a Pherastar Fluorescent Reader (BMG). λ Emission 380 nm; λ Excitation=460 nm. Data (mean values +/− standard deviation) were analyzed as % of control (no compound) and plotted as percentage versus the Log of the compound concentration using GraphPad (Prism). Data were fitted to a sigmoidal model (variable slope).

Row | IC50 [nM] | Molecule
1 | 1020 | O=C1c2ccccc2-c2nn3c(CO)nnc3nc21 [Example 1h/B]
2 | > 100000 | O=C1c2ccccc2-c2nc3nnc(C4CC4)n3nc21 [Example 1j/A, 1-Cyclopropyl-2,3,4,10,10a-pentaaza-cyclopenta[b]fluoren-9-one]
3 | 5880 | CCCc1nnc2nc3c(nn12)C(=O)c1ccccc1-3 [Example 1e/A, 1-Propyl-2,3,4,10,10a-pentaaza-cyclopenta[b]fluoren-9-one]
4 | > 100000 | CCc1nnc2nc3c(nn12)C(=O)c1ccccc1-3 [Example 1d/A, 1-Ethyl-2,3,4,10,10a-pentaaza-cyclopenta[b]fluoren-9-one]
5 | > 100000 | 6-(7)-Chloro-1-methyl-2,3,4,10,10a-pentaaza-cyclopenta[b]fluoren-9-one [Example 3/A]
6 | 694 | CCCc1nnc2nc3c(nn12)-c1ccccc1C3=O [Example 1e/B, 3-Propyl-1,2,3a, 4,10-pentaaza-cyclopenta[b]fluoren-9-one]
7 | 1090 | COCc1nnc2nc3c(nn12)-c1ccccc1C3=O [Example 1i/B, 3-Methoxymethyl-1,2,3a, 4,10-pentaaza-cyclopenta[b]fluoren-9-one]
8 | 954 | CC(C)Cc1nnc2nc3c(nn12)-c1ccccc1C3=O [Example 1g/B, 3-Isobutyl-1,2,3a,4,10-pentaaza-cyclopenta[b]fluoren-9-one]
9 | 731 | Nc1nnc2nc3c(nn12)-c1ccccc1C3=O [Example 1c/B, 3-Amino-1,2,3a,4,10-pentaaza-cyclopenta[b]fluoren-9-one]
10 | 415 | CCc1nnc2nc3c(nn12)-c1ccccc1C3=O [Example 1d/B, 3-Ethyl-1,2,3a, 4,10-pentaaza-cyclopenta[b]fluoran-9-one]
11 | 229 | CCCCc1nnc2nc3c(nn12)-c1ccccc1C3=O [Example 1f/B, 3-Butyl-1,2,3a,4,10-pentaaza-cyclopenta[b]fluoren-9-one]
12 | > 100000 | O=C1c2ccccc2-c2nc3nnc(Cc4ccccc4)n3nc21 [Example 1k/A, 1-Benzyl-2,3,4,10,10a-pentaaza-cyclopenta[b]fluoren-9-one]
13 | 1210 | O=C1c2ccccc2-c2nn3c(Cc4ccccc4)nnc3nc21 [Example 1k/B, 3-Benzyl-1,2,3a,4,10-pentaaza-cyclopenta[b]fluoren-9-one]
14 | 706 | Cc1nnc2nc3c(nn12)-c1ccccc1C3=O [Example 1b/B, 3-Methyl-1,2,3a,4,10-pentaaza-cyclopenta[b]fluoren-9-one]
15 | 855 | Cc1nnc2nc3c(nn12)-c1ccc(Cl)cc1C3=O [Example 3/B, 7-Chloro-3-methyl-1,2,3a, 4,10-pentaaza-cyclopenta[b]fluoren-9-one]
16 | > 100000 | CC(C)Cc1nnc2nc3c(nn12)C(=O)c1ccccc1-3 [Example 1g/A, 1-Isobutyl-2,3,4,10,10a-pentaaza-cyclopenta[b]fluoren-9-one]
17 | 22100 | COCc1nnc2nc3c(nn12)C(=O)c1ccccc1-3 [Example 1i/A, 1-Methoxymethyl-2,3,4,10,10a-pentaaza-cyclopenta[b]fluoren-9-one]
18 | 299 | O=C1c2ccccc2-c2nn3c(C4CC4)nnc3nc21 [Example 1j/B, 3-Cyclopropyl-1,2,3a,4,10-pentaaza-cyclopenta[b]fluoren-9-one]
19 | > 100000 | CCCCc1nnc2nc3c(nn12)C(=O)c1ccccc1-3 [Example 1f/A, 1-Butyl-2,3,4,10,10a-pentaaza-cyclopenta[b]fluoren-9-one]
